Test results published in US10294237B2, “Bicyclic heterocyclic amide derivative” (Sumitomo Dainippon Pharma Co., Ltd., priority 2015, dated 2019).
Where a name gives a salt, the structure may show the parent alone.

Legend:
HCT-116 cells [1] = assay: Test for inhibiting sphere-forming ability of cancer cells; format: cell-based; details: HCT-116 spheres, non-adherent, serum-free, 4 days, CellTiter-Glo, read-out: IC50 (Sphere IC50 value; concentration for 50% inhibition of cell proliferation)
Description: (§1) The reliable methods established for measuring the self-renewal ability of cells which is one of the CSC's properties include a method for measuring the sphere-forming ability of cancer cells in non-adherent condition in the absence of serum (Cancer Res 65, 5506-5511 (2005)). HCT-116 cells were available from the American Type Culture Collection (ATCC). HCT-116 cells were cultured at 37° C. and 5% CO2 using the McCoy's 5a medium containing 10% fetal bovine serum (FBS) and 1% penicillin/streptomycin. HCT-116 cells were seeded in a 384 Well Black Clear Bottom Ultra-Low Attachment Microplate (Corning Cat. No. 3827) in an amount of 350-800 cells/well using the DMEM/F12 medium containing 2% B27 supplement (GIBCO), 20 ng/mL epidermal growth factor (EGF) (peprotech), 10 ng/mL basic fibroblast growth factor (bFGF) (peprotech), 5 μg/mL insulin (Sigma), and 1% penicillin/streptomycin. The test compounds were added into each well to adjust the final concentration of DMSO to 0.1%, and the cells were cultured for 4 days. The number of viable cells in each well was then measured with CellTiter-Glo® Luminescent Cell Viability Assay (Promega) to calculate the concentration of each test compound for 50% inhibition of cell proliferation (Sphere IC50 value; μmol/L).
The experiment of Test Example 1 was performed for the compounds of each Example. The concentrations of each test compound for 50% inhibition of cell profeliration (Sphere IC50 value; μmol/L) are shown in the following Table.

HCT-116 cells [2] = assay: Test for inhibiting sphere-forming ability of cancer cells (in the presence of BSA); format: cell-based; details: HCT-116 spheres, non-adherent, 5% BSA, 4 days, CellTiter-Glo, read-out: IC50 (Sphere IC50 value; concentration for 50% inhibition of cell proliferation)
Description: as §1, with “HCT-116” for “The reliable methods established for measuring the self-renewal ability of cells which is one of the CSC's properties include a method for measuring the sphere-forming ability of cancer cells in non-adherent condition in the absence of serum (Cancer Res 65, 5506-5511 (2005)). HCT-116”, “(Sigma), 5% bovine serum albumin (BSA),” for “(Sigma),”
The experiment of Test Example 2 was performed for the compounds of each Example. The concentrations of each test compound for 50% inhibition of cell profeliration (Sphere IC50 value; μmol/L) are shown in the following Table.

IC50 (HCT-116 cells [1]; Homo sapiens, 96 h) | IC50 (HCT-116 cells [2]; Homo sapiens, HCT-116, 96 h) | IC50 (HCT-116 cells [1]) | IC50 (HCT-116 cells [2]) | SMILES
70 nM | 590 nM | – | – | Cc1ccc(Cn2cnc(NC(=O)c3ccc4c(c3)CCNC4)c2)cc1C(F)(F)F [Example 97, N-{1-[4-methyl-3-(trifluoromethyl)benzyl]-1H-imidazol-4-yl}-1,2,3,4-tetrahydroisoquinoline-6-carboxamide]
500 nM | 510 nM | – | – | COc1cc(Cn2cnc(NC(=O)c3ccc4c(c3)CCNC4)c2)cc(C(F)(F)F)c1 [Example 98]
60 nM | 90 nM | – | – | O=C(Nc1cn(Cc2cc(F)c(F)c(F)c2)cn1)c1ccc2c(c1)CCNC2 [Example 25, N-[1-(3,4,5-Trifluorobenzyl)-1H-imidazol-4-yl]-(1,2,3,4-tetrahydroisoquinoline-6-carboxamide ditrifluoroacetate]
90 nM | 590 nM | – | – | O=C1CCc2cc(C(=O)Nc3cn(Cc4cc(F)c(F)c(F)c4)cn3)ccc2N1 [Example 37]
70 nM | 90 nM | – | – | O=C(Nc1cn(Cc2ccc(F)c(C(F)(F)F)c2)cn1)c1ccc2c(c1)CCNC2 [Example 92, N-{1-[4-fluoro-3-(trifluoromethyl)benzyl]-1H-imidazol-4-yl}-1,2,3,4-tetrahydroisoquinoline-6-carboxamide]
4940 nM | – | – | – | O=C(Nc1cn(Cc2cccc(C(F)(F)F)c2)cn1)c1ccc2c(c1)CCOC2 [Example 23]
80 nM | 90 nM | – | – | O=C(Nc1cn(Cc2ccc(F)c(Cl)c2)cn1)c1ccc2c(c1)CCNC2 [Example 95, N-[1-(3-chloro-4-fluorobenzyl)-1H-imidazol-4-yl]-1,2,3,4-tetrahydroisoquinoline-6-carboxamide]
– | – | 750 nM | 440 nM | O=C(Nc1cn(Cc2ccccc2F)cn1)c1cnc2c(c1)CCNC2 [Example 46]
– | – | 3790 nM | 4900 nM | O=C(Nc1cn(Cc2ccccc2C(F)(F)F)cn1)c1ccc2c(c1)CCNC2 [Example 82]
70 nM | 500 nM | – | – | O=C(Nc1cn(Cc2cccc(C(F)(F)F)c2)cn1)c1cc2c(cn1)CNCC2 [Example 9, N-{1-[3-(trifluoromethyl)benzyl]-1H-imidazol-4-yl}-5,6,7,8-tetrahydro-2,7-naphthyridine-3-carboxamide]
1480 nM | – | – | – | O=C(Nc1cn(Cc2cccc(C(F)(F)F)c2)cn1)c1ccc2c(c1)CNC2 [Example 33]
72300 nM | – | – | – | CC1(C)CNCc2ccc(C(=O)Nc3cn(Cc4cccc(C(F)(F)F)c4)cn3)cc21 [Example 32]
– | – | 730 nM | 630 nM | O=C(Nc1cn(Cc2ccc3c(c2)OCO3)cn1)c1cnc2c(c1)CCNC2 [Example 119]
6200 nM | 6190 nM | – | – | Cc1c(NC(=O)c2ccc3c(c2)CCNC3)ncn1Cc1cccc(C(F)(F)F)c1 [Example 21]
– | – | 3450 nM | 5460 nM | O=C(Nc1cn(Cc2ccccc2F)cn1)c1ccc2c(c1)CCNC2 [Example 72]
670 nM | 700 nM | – | – | O=C(Nc1cn(Cc2cccc(C(F)(F)F)c2)cn1)c1ccc2c(c1)CNCC2 [Example 18]
– | – | 920 nM | 770 nM | O=C(Nc1cn(Cc2ccccc2)cn1)c1ccc2c(c1)CCNC2 [Example 71]
80 nM | 170 nM | – | – | O=C(Nc1cc2c(cc1F)CNCC2)c1cn(Cc2cc(F)c(F)c(F)c2)cn1 [Example 1, N-(7-fluoro-1,2,3,4-tetrahydroisoquinolin-6-yl)-1-(3,4,5-trifluorobenzyl)-1H-imidazole-4-carboxamide]
– | – | 710 nM | 590 nM | O=C(Nc1cn(Cc2ccccc2C(F)(F)F)cn1)c1cnc2c(c1)CCNC2 [Example 62]
5900 nM | 5120 nM | – | – | CN(C)c1cccc(Cn2cnc(NC(=O)c3ccc4c(c3)CCNC4)c2)c1 [Example 105]
4180 nM | 6100 nM | – | – | O=C(Nc1cn(Cc2ccc3ccccc3c2)cn1)c1ccc2c(c1)CCNC2 [Example 103]
80 nM | 380 nM | – | – | O=C(Nc1cn(Cc2ccc(Cl)cc2)cn1)c1cnc2c(c1)CCNC2 [Example 65, N-[1-(4-chlorobenzyl)-1H-imidazol-4-yl]-5,6,7,8-tetrahydro-1,7-naphthyridine-3-carboxamide]

IC50 (HCT-116 cells [1]; Homo sapiens, 96 h) | IC50 (HCT-116 cells [2]; Homo sapiens, HCT-116, 96 h) | IC50 (HCT-116 cells [1]) | IC50 (HCT-116 cells [2]) | SMILES
620 nM | 530 nM | – | – | O=C(Nc1cn(Cc2ccc(C(F)(F)F)o2)cn1)c1ccc2c(c1)CCNC2 [Example 104]
80 nM | 100 nM | – | – | O=C(Nc1cn(Cc2cccc(C(F)(F)F)c2)cn1)c1ccc2c(c1)CCNC2 [Example 26]
– | – | 490 nM | 490 nM | O=C(Nc1cn(Cc2cc(F)cc(F)c2)cn1)c1ccc2c(c1)CCNC2 [Example 74]
70 nM | 90 nM | – | – | O=C(/C=C/c1ccc2c(c1)OCO2)Nc1cn(Cc2cccc(Cl)c2)cn1 [Example 38]
60 nM | 50 nM | – | – | O=C(Nc1cn(Cc2ccc(Cl)c(F)c2)cn1)c1cnc2c(c1)CCNC2 [Example 51, N-[1-(4-chloro-3-fluorobenzyl)-1H-imidazol-4-yl]-5,6,7,8-tetrahydro-1,7-naphthyridine-3-carboxamide]
6630 nM | – | – | – | CC(=O)N1CCc2cc(C(=O)Nc3cn(Cc4cccc(C(F)(F)F)c4)cn3)ccc2C1 [Example 108, 2-Acetyl-N-{1-[3-(trifluoromethyl)benzyl]-1H-imidazol-4-yl}-1,2,3,4-tetrahydroisoquinoline-6-carboxamide trifluoroacetate]
– | – | 80 nM | 70 nM | O=C(Nc1cn(Cc2cccc(F)c2)cn1)c1cnc2c(c1)CCNC2 [Example 120]
6990 nM | 6110 nM | – | – | COc1cc(Cn2cnc(NC(=O)c3ccc4c(c3)CCNC4)c2)cc(OC)c1 [Example 94]
– | – | 6810 nM | 5680 nM | O=C(Nc1cn(CCCOc2ccccc2)cn1)c1cnc2c(c1)CCNC2 [Example 117]
10 nM | 20 nM | – | – | O=C(/C=C/c1ccc2c(c1)CCO2)Nc1cn(Cc2cccc(Cl)c2)cn1 [Example 41]
– | – | 80 nM | 50 nM | O=C(Nc1cn(CC2CCCCC2)cn1)c1cnc2c(c1)CCNC2 [Example 55]
– | – | 700 nM | 5490 nM | O=C(Nc1cn(Cc2ccc3ccccc3c2)cn1)c1cnc2c(c1)CCNC2 [Example 66]
70 nM | 80 nM | – | – | O=C(Nc1cn(Cc2cc(F)cc(Cl)c2)cn1)c1ccc2c(c1)CCNC2 [Example 91, N-[1-(3-chloro-5-fluorobenzyl)-1H-imidazol-4-yl]-1,2,3,4-tetrahydroisoquinoline-6-carboxamide]
520 nM | 670 nM | – | – | O=C1Nc2cc(C(=O)Nc3cn(Cc4cccc(C(F)(F)F)c4)cn3)cnc2CO1 [Example 24]
– | – | – | 6180 nM | O=C(Nc1cn(CC2CCOCC2)cn1)c1cnc2c(c1)CCNC2 [Example 118]
7070 nM | – | – | – | O=C(Nc1cn(Cc2cccc(C(F)(F)F)c2)cn1)c1ccc2c(c1)CCC1(C2)OCCO1 [Example 109, N-{1-[3-(Trifluoromethyl)benzyl]-1H-imidazol-4-yl}-3′,4′-dihydro-1′H-spiro[1,3-dioxolane-2,2′-naphthalene]-6′-carboxamide]
– | – | – | 8520 nM | Nc1cccc(Cn2cnc(NC(=O)c3cnc4c(c3)CCNC4)c2)c1 [Example 67]
– | 6340 nM | – | – | O=C(Nc1cn(Cc2cccc(O)c2)cn1)c1ccc2c(c1)CCNC2 [Example 107]
65200 nM | – | – | – | O=C(Nc1cn(Cc2cccc(C(F)(F)F)c2)cn1)c1nc2c(s1)CCNC2 [Example 20]
6160 nM | – | – | – | CN1CCc2cc(C(=O)Nc3cn(Cc4cccc(C(F)(F)F)c4)cn3)ccc2C1 [Example 30, 2-Methyl-N-{1-[3-(trifluoromethyl)benzyl]-1H-imidazol-4-yl}-1,2,3,4-tetrahydroisoquinoline-6-carboxamide]
– | – | 6780 nM | – | COc1ccc(Cn2cnc(NC(=O)c3ccc4c(c3)CCNC4)c2)cc1 [Example 84]
